Data on 14 molecules can be found in US8828992B2, “Substituted azole derivatives, pharmaceutical composition containing the derivatives, and method for treating Parkinson's disease using the same” (priority 2009, dated 2014).

One assay deals with MPTP-induced mouse model. As to the kind of experiment: Tail suspension test in MPTP-induced mouse model of Parkinson's disease. The assay is classed as in vivo. Particulars: Mus musculus, 168 h; administration concentration 10 (10 mg/kg), oral, 7 days after MPTP; % of control group (Sham); read-out: Mobility (%). On the procedure:
(§1) A. MPTP (1-methyl-4-phenyl-1,2,3,6-tetrahydropyridine) and drug treatment MPTP (20 mg/kg, free base; Sigma, St. louis, Mo.) was administered to an 8 week old (20-25 g) male C57BL/6 test mouse intraperitoneally three times a day at the interval of 2 hours to construct a model (Breidert et al., 2002; Lichuan Yang, Shuei Sugama, Jason W. Chirichigno, Jason Gregorio, Stefan Lorenzl, Dong H. Shin, Susan E. Browne, Yoshinori Shimizu, Tong H. Joh, M. Flint Beal, l and David S. Alber. (2003) Minocycline Enhances MPTP Toxicity to Dopaminergic Neurons. J Neurosci Res. 74:278-285). In order to observe the protective effects of the compound as a candidate drug, the compound was dissolved in a solution containing 10% dimethylsulfoxide (DMSO), 10% Cremophor, and 40% polyethyleneglycol (PEG), […] treatment. Rasagiline as a control drug was also dissolved in the same solution, and the resulting solution was administered at the same doses in the same manner as above. A control group (Sham) in which MPTP was not administered was constructed by intraperitoneally administering saline solution to the group instead of MPTP in the same manner as above and orally administering the same solution 1 hour before and after PBS treatment.
A tail suspension test was performed in order to measure the induction degree of behavioral dysfunctions in accordance with administration of MPTP and a drug. At 7 days after administration of the drug, a round stainless steel rod (width: 1 cm) was affixed to a cage (width: 16 cm, height: 40 cm) 35 cm above from the surface shielded by black wooden structures in the left and right sides to perform experiments. The time for which the animal moved for a total period of 6 minutes was measured in seconds to evaluate the drug action.
Mobility refers to an expression of the measurement of the time for which the animal moved with its tail hung high as a percentage compared to the measurement of a control group.

Assay [1] concerns dopamine (DA) in the striata of MPTP-treated mice. Nature of the assay: Levels of dopamine in the striata of MPTP-treated mice (HPLC). The assay is classed as in vivo. Particulars: Mus musculus, po, 168 h, 10 mpk, 7 days after MPTP, read-out: Levels of dopamine (DA) in the striata, compared to a control group %. As for the experimental part: as §1
The changes of contents of dopamine and dopamine metabolites in the striatum in accordance with administrations of MPTP and the drug were measured by high performance liquid chromatography (HPLC). At 7 days after administration of the drug, the animal was sacrificed by cervical vertebra dislocation and the brain tissues were immediately isolated from the animal. 0.5 ml of iced solution for HPLC analysis (0.1 M perchloric acid and 0.1 mM EDTA) was added to a striatum obtained from the isolated brain tissues, and an ultrasonic grinder was used to prepare a tissue homogenate. The tissue homogenate was centrifuged at 12,000 rpm for 15 minutes, and its supernatant was filtered through nitrocellulose membrane filter (0.2 um, Millipore). For HPLC analysis, uBondapak™ C18 column (4.6×150 mm, particle size 10 μm: Shisheido, Japan) was used, the flow rate of the mobile phase (0.07 M monobasic sodium phosphate), 1 mM sodium octasulfonic acid, 0.1 uM EDTA, 5% acetonitrile, pH 3.2) was maintained at 0.7 ml/min, and the electrode potential of the electrochemical detector (ICA-5000, Japan) was set at 700 mV.

Assay [2] addresses T1, Monoamineoxidase B type human-derived enzyme (Homo sapiens, UniProt P27338).
T1 sequence (P27338 1-520): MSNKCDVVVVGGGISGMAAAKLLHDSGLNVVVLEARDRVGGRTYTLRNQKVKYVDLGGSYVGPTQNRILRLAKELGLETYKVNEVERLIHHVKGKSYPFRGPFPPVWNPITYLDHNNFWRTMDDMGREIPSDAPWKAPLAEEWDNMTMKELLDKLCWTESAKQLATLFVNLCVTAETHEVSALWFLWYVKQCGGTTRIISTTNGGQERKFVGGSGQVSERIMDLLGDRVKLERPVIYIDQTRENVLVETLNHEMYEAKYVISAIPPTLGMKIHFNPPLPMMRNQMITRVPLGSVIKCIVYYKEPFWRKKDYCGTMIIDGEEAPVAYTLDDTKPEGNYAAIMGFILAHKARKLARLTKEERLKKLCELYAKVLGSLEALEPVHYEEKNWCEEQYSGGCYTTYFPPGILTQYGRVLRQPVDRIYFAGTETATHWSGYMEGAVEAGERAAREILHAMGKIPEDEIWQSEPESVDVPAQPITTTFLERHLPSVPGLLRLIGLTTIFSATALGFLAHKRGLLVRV
Nature of the assay: Inhibitory effects on the activity of MAO-B (Amplex Red fluorescence, benzylamine substrate). The assay is classed as biochemical. Particulars: read-out: Inhibitory effects (%) on the activity of MAO-B. The method, boiled down: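 Human MAO-B, diluted 1:200 in 0.05 M sodium phosphate pH 7.4, was pre-incubated with compound for 30 min. It was then mixed 1:1 with working buffer holding 400 μM Amplex Red, 2 U/ml HRP and 2 mM benzylamine (working-buffer levels). Fluorescence (Ex 563/Em 587 nm) was read over 30 min.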

Assay [3] relates to dopamine (DA) in the striatum of a MPTP-treated mouse. Nature of the assay: Combined administration with Levodopa group: dopamine in the striatum of MPTP-treated mouse (HPLC). The assay is classed as in vivo. Particulars: compound 1 mg/kg PO co-administered with Levodopa group (Levodopa 50 mg/kg + Benzerazide 25 mg/kg IP); for Concentration of dopamine compared to a control group %, 1 hr: 1 hr after Levodopa; for Concentration of dopamine compared to a control group %, 3 hr: 3 hr after Levodopa. On the procedure: MPTP (20 mg/kg, free base; Sigma, St. louis, Mo.) was administered to an 8 week old (20-25 g) male C57BL/6 test mouse intraperitoneally at the interval of 2 hours to construct a model.
In order to observe the effects of combined administration of a compound of the present invention and Levodopa, the compound of the present invention was dissolved in a solution containing 0.02 ml of dimethylsulfoxide (DMSO), 0.02 ml of Cremophor, 0.08 ml of polyethyleneglycol (PEG), and 0.08 ml of physiological saline. The resulting solution was orally administered at doses of 1 mg/kg one week after the MPTP treatment, and a Levodopa group containing Levodopa at 50 mg/kg and Benzerazide at 25 mg/kg was intraperitoneally administered 1 hour later.
A single administration of the Levodopa group in the following Table 4 indicates values resulting from a MPTP (toxin) treatment followed by an administration of the Levodopa group compared to the treatment results of a Levodopa single administration group of Levodopa and Benzerazide.
At 1 hour and 3 hours after administration of Levodopa, the animals were sacrificed by cervical vertebra dislocation and the brain tissues were immediately isolated from the animals. 0.5 me of iced solution for HPLC analysis (0.1 M perchloric acid and 0.1 mM EDTA) was added to a striatum obtained from the isolated brain tissues, and an ultrasonic grinder was used to prepare a tissue homogenate. The tissue homogenate was centrifuged at 12,000 rpm for 15 minutes, and its supernatant was filtered through nitrocellulose membrane filter (0.2 um, Millipore). For HPLC analysis, uBondapak™ C18 column (4.6×150 mm, particle size 10 μm: Shisheido, Japan) was used, the flow rate of the mobile phase (0.07 M monobasic sodium phosphate, 1 mM sodium octasulfonic acid, 0.1 uM EDTA, 5% acetonitrile, pH 3.2) was maintained at 0.5 me/min, and the electrode potential of the electrochemical detector (CouloChem III, ESA, Japan) was set at 350 mV.

Like-named read-outs stand apart in the source and are kept apart here.

`NC(=O)OCc1cc(-c2ccc(OCc3ccccn3)cc2)no1` [Example 65, Carbamic acid 3-[4-(pyridin-2-ylmethoxy)-phenyl]-isoxazol-5-ylmethyl ester]: the response vs control in vivo at 10 mg/kg in the assay on MPTP-induced mouse model turned out to be 94.1%; in assay [1] it was 74.9%. Also, in assay [2], the inhibition at 0.01 µM is 89.9%.

For the molecule `Cc1cn(Cc2cc(-c3ccc(OCc4ccccc4)cc3)no2)cn1` [Example 141, 3-(4-benzyloxy-phenyl)-5-(4-methyl-imidazol-1-ylmethyl)-isoxazole], the response vs control in vivo at 10 mg/kg was 94.6% in the assay on MPTP-induced mouse model and 51.2% in assay [1]. In assay [2] (treatment concentration 10 nM), the inhibition at 0.01 µM is 92.2%.

Consider `Fc1cccc(F)c1COc1ccc(-c2cc(Cn3ccnc3)on2)cc1` [Example 143, 3-[4-(2,6-difluoro-benzyloxy)-phenyl]-5-imidazol-1-ylmethyl-isoxazole], for which the response vs control in vivo at 10 mg/kg in the assay on MPTP-induced mouse model was 98.9%; in assay [1] it was 46.1%. In addition, the inhibition at 0.01 µM in assay [2] (treatment concentration 10 nM) is 98.1%.

With `Fc1cccc(COc2ccc(-c3cc(Cn4ccnc4)on3)cc2)c1` [Example 142, 3-[4-(3-fluoro-benzyloxy)-phenyl]-5-imidazol-1-ylmethyl-isoxazole], the response vs control in vivo at 10 mg/kg in the assay with MPTP-induced mouse model came out at 101%. In assay [3], the “Concentration of dopamine compared to a control group %, 1 hr” value (shortened to “Concentration … to a control group %, 1 hr”) came to 174.5% and the “Concentration of dopamine compared to a control group %, 3 hr” value (from here on “Concentration … to a control group %, 3 hr”) was found to be 65.5%. Also, the inhibition at 0.01 µM in assay [2] (treatment concentration 10 nM) came out at 89.5%.

Take `NC(=O)OCc1cc(-c2ccc(OCc3cccc(F)c3)cc2)no1` [Example 12, carbamic acid 3-[4-(3-fluoro-benzyloxy)-phenyl]-isoxazol-5-ylmethyl ester]: the response vs control in vivo at 10 mg/kg with MPTP-induced mouse model is 85.3%; in assay [1], 78.8%. Also, in assay [2] (treatment concentration 10 nM), the inhibition at 0.01 µM turned out to be 94.1%.

For `CCCCCCOc1ccc(-c2cc(COC(N)=O)on2)cc1` [Example 45, carbamic acid 3-(4-hexyloxy-phenyl)-isoxazol-5-ylmethyl ester], the values for the response vs control in vivo at 10 mg/kg (in the assay with MPTP-induced mouse model; in assay [1]) were 114% and 41.1%, respectively. Also, the inhibition at 0.01 µM in assay [2] worked out at 87.6%.

As to `NC(=O)OCc1cc(-c2ccc(OCc3ccccc3)cc2)no1` [Example 1, carbamic acid 3-(4-benzyloxy-phenyl)-isoxazole-5-ylmethyl ester], the response vs control in vivo at 10 mg/kg with MPTP-induced mouse model worked out at 113%; in assay [1] it was 112%. Moreover, the “Concentration … to a control group %, 1 hr” value in assay [3] stood at 129.5%. Further, in assay [3], the “Concentration … to a control group %, 3 hr” value stood at 90.8%. Moreover, the inhibition at 0.01 µM in assay [2] amounted to 96.6%.

With `NC(=O)OCc1cc(-c2ccc(OCc3cccc(C=NO)c3)cc2)no1` [Example 38, carbamic acid 3-{4-[3-(hydroxyimino-methyl)-benzyloxy]-phenyl}-isoxazol-5-ylmethyl ester], the results for the response vs control in vivo at 10 mg/kg (in the assay on MPTP-induced mouse model; in assay [1]) were 73% and 52.9%, respectively. Also, in assay [2] (treatment concentration 10 nM), the inhibition at 0.01 µM was found to be 91.7%.

Turning to `NC(=O)OCc1cc(-c2ccc(OCc3ccncc3)cc2)no1` [Example 67, Carbamic acid 3-[4-(pyridin-4-ylmethoxy)-phenyl]-isoxazol-5-ylmethyl ester], the response vs control in vivo at 10 mg/kg with MPTP-induced mouse model worked out at 88.9%; in assay [1] it was 80.7%. In assay [2], the inhibition at 0.01 µM was determined as 94.2%.

For `NC(=O)OCc1cc(-c2ccc(NCc3c(F)cccc3F)cc2)no1` [Example 79, Carbamic acid 3-[4-(2,6-difluoro-benzylamino)-phenyl]-isoxazol-5-ylmethyl ester], the response vs control in vivo at 10 mg/kg with MPTP-induced mouse model is 99.4%. Further, in assay [3], the “Concentration … to a control group %, 1 hr” value came out at 87.6% and the “Concentration … to a control group %, 3 hr” value is listed as 115.2%. The inhibition at 0.01 µM in assay [2] (treatment concentration 10 nM) was 84.6%.

For the molecule `NC(=O)OCc1cc(-c2ccc(OCc3ccccc3)cc2)ns1` [Example 3, carbamic acid 3-(4-benzyloxy-phenyl)-isothiazol-5-ylmethyl ester], in the assay on MPTP-induced mouse model, the response vs control in vivo at 10 mg/kg is 70.3%. For the same molecule, in assay [3], the “Concentration … to a control group %, 1 hr” value amounted to 173.43% and the “Concentration … to a control group %, 3 hr” value is reported as 39.3%. Further, the inhibition at 0.01 µM in assay [2] is 95.2%.

Take `NC(=O)OCc1cc(-c2ccc(OCc3ccc(C=NO)cc3)cc2)no1` [Example 37, carbamic acid 3-{4-[4-(hydroxyimino-methyl)-benzyloxy]-phenyl}-isoxazol-5-ylmethyl ester]: the response vs control in vivo at 10 mg/kg in the assay on MPTP-induced mouse model turned out to be 77.5%; in assay [1], 79.2%. Moreover, in assay [2] (treatment concentration 10 nM), the inhibition at 0.01 µM is 92.3%.

In the case of `NC(=O)OCc1cc(-c2ccc(OCn3nnc4ccccc43)cc2)no1` [Example 71, Carbamic acid 3-[4-(benzotriazol-1-ylmethoxy)-phenyl]-isoxazol-5-ylmethyl ester], the response vs control in vivo at 10 mg/kg in assay [1] worked out at 41.1%. In addition, in assay [2] (treatment concentration 10 nM), the inhibition at 0.01 µM turned out to be 56%.

Turning to `NC(=O)OCc1cc(-c2ccc(NCc3ccc(F)c(F)c3)cc2)no1` [Example 84, Carbamic acid 3-[4-(3,4-difluoro-benzylamino)-phenyl]-isoxazol-5-ylmethyl ester], the response vs control in vivo at 10 mg/kg in the assay with MPTP-induced mouse model is 97.7%. Moreover, in assay [3], the “Concentration … to a control group %, 1 hr” value is on record as 153.7% and the “Concentration … to a control group %, 3 hr” value came out at 144.3%. The inhibition at 0.01 µM in assay [2] (treatment concentration 10 nM) turned out to be 88.5%.
